{"source": "patent US12590093B2", "about": "“Indolo[2′,3′:3,4]pyrido[2,1-b]quinazoline compound and use thereof” (INSTITUTE OF MEDICINAL BIOTECHNOLOGY CHINESE ACADEMY OF …, priority 2019, dated 2026)", "key": {"SR-BI": {"system": "SR-BI", "assay": "SR-BI up-regulation, luciferase reporter in SR-BI-LUC HepG2 cells", "format": "cell-based", "conditions": "Homo sapiens, 18 h, maximum up-regulation of luciferase activity versus DMSO, read-out: SR-BI max", "protocol": "Experiments were conducted to detect whether the compounds of the disclosure can pharmacologically up-regulate the expression of ABCA1 and SR-BI. Firstly, ABCA1P-LUC HepG2 cells or SR-BI-LUC HepG2 cells in logarithmic growth phase were digested, diluted in cell culture medium, and counted. Cells were seeded into 96-well plates at a density of 5×10^5/ml (100 μL of the single-cell suspension per well). After cells fully adhered (about 6 h), the medium containing 10% FBS was removed, and the cells were gently washed with PBS. Serum free MEM-EBSS medium (200 μL per test well) and 2 μL of the compounds to be tested (at a final concentration of 10 μg/mL) were added to each test well, and meanwhile, DMSO at a corresponding concentration was added to the control well. After 18-24 h, the medium was removed. Cell Luciferase activity was measured by a method as described in the Luciferase Assay System. By optimizing the final concentration of DMSO, the treatment time of the compounds on the cells and the number of cells seeded into each well during the screening, the final screening conditions were determined as follows: each well is seeded with 5×10^4 cells, DMSO is added at a final concentration of 1%, and the sample is treated for 18 h.\nThe ratio of change of luciferase activity is calculated with the following formula: Ratio of change (%)=A/B×100;\nwherein A is the luciferase activity (RLU) measured after the compound to be tested is added, and B is the luciferase activity (RLU) measured after the blank control (DMSO) is added. The luciferase activity of cells in each well was measured, and the dose-effect relationship between the concentration of the compound and the ratio of change of the luciferase activity was determined to calculate the EC50."}, "ApoE^−/− mice": {"system": "ApoE^−/− mice", "assay": "Serum inflammatory factor levels in ApoE−/− mice (ELISA)", "format": "in vivo", "conditions": "5 mg/kg intragastrically, 12 weeks, HFD", "protocol": "6-week-old male C57/BL6 ApoE^−/− mice were fed on normal chaw diet for one week. The mice were randomly divided into three groups (control group, high-fat diet model group, and treatment group, 12 mice per group) according to the body weight. From 7-week-old, the high-fat diet model group and the treatment group were fed on a high fat diet (HFD) (0.15% cholesterol and 20% fat), and the control group was fed on normal chow diet. The treatment group (R3) mice were administered intragastrically with TR3 (5 mg/kg). The control group and the high-fat diet model group mice were intragastrically administered with sodium carboxymethylcellulose (CMC-Na) solution. After 12 weeks of administration, all mice were fasted overnight. The blood sample was taken from the retro-orbital plexus, collected in a EP tube, and then centrifuged for 15 min (2500 rpm). The centrifuged serum (upper layer) was transferred to new EP tubes (divided into two aliquots) and stored at −20° C. for further use. The mice were fixed, and the skin was cut open along the midline of the abdomen to the neck. The abdominal cavity was cut open to collect the fresh liver tissue. The Liver tissue was put into 3 freezing tubes, and then immediately put into liquid nitrogen for subsequent detection of liver lipid detection and extraction of RNA and protein. The thorax was cut open to expose the heart. The heart was perfused with 10 ml PBS, and then fixed by perfusion with 4% paraformaldehyde solution until the liver turned white. The fixed liver was taken out and placed in a six-well plate containing 4% paraformaldehyde solution for further fixation. The full-length aorta (from the ascending aorta to the common iliac arteries) was isolated and placed in a six-well plate containing 4% paraformaldehyde solution. The aorta was fixed in 4% paraformaldehyde solution overnight and then stored in 20% sucrose solution at 4° C.\nThe levels of IL-1β, IL-18, IL-6, TNF-α and IL-10 in the serum of ApoE^−/− mice were measured by using the corresponding ELISA kits (Nanjing Sen Bei Jia Biotechnology Co., Ltd., Nanjing, China). Standard dilution and addition: the standard was diluted by gradient, and 10 wells on the coated ELISA plate were set for standard addition. Sample addition: blank wells and sample wells were set separately. The sample wells of the coated ELISA plates were first added with 40 μL sample diluent, and then added 10 μL sample (the final dilution of the sample is 5-fold). […] Assay detection: the absorbance at 450 nm of each well was read with the absorbance at 450 nm of the blank well as zero, and this process was performed within 15 min after the stop solution was added."}, "ABCA1": {"system": "ABCA1", "assay": "ABCA1 expression in RAW 264.7 cells by western-blot, with or without si-AMPK", "format": "cell-based, Murine", "protocol": "Murine macrophages RAW 264.7 cells were subcultured about every 48 h. When the cells were approximately 100% confluent, the old culture medium was removed, and the cells were washed with PBS and digested with trypsin at an appropriate amount for about 2 min at RT. After the digestion solution was removed, the RPMI-1640 complete medium containing 10% FBS was added immediately to inhibit the activity of trypsin. The cells in the culture flask were repeatedly and gently blown with a curved straw, so that they were completely detached from the bottom of the flask and dispersed into the single-cell suspension. The cells were seeded into a new cell flask at a density of 1:4-1:6, and added with an appropriate amount of the complete medium. The flask was placed in an incubator and cultured at 37° C., 5% CO2. RAW264.7 cells were pretreated with si-AMPK (AMPK siRNA) for 24 h, and then treated with compound TR3 (1 μM) for 24 h. The expression of ABCA1 and AMPK was detected by western-blot.\nThe effect of TR3 on AMPK was detected by western-blot."}}}
{"smiles": "c1ccc2c(c1)CN1CCc3c([nH]c4ccccc34)C1=N2", "note": "[TR3, 5,7,8,13-tetrahydroindolo[2′,3′:3,4]pyrido[2,1-b]quinazoline]", "values": [{"measurement": "maximal fold induction", "setting": "SR-BI", "result": 2.07}, {"measurement": "level of IL-1β in mouse serum", "setting": "ApoE^−/− mice", "result": "decreased the levels of IL-1β, IL-18 and IL-6 significantly"}, {"measurement": "level of IL-6 in mouse serum", "setting": "ApoE^−/− mice", "result": "decreased the levels of IL-1β, IL-18 and IL-6 significantly"}, {"measurement": "level of IL-18 in mouse serum", "setting": "ApoE^−/− mice", "result": "decreased the levels of IL-1β, IL-18 and IL-6 significantly"}, {"measurement": "level of TNF-α in mouse serum", "setting": "ApoE^−/− mice", "result": "decreased the levels of IL-1β, IL-18 and IL-6 significantly and the level of TNF-α slightly"}, {"measurement": "up-regulation of ABCA1 expression after addition of si-AMPK", "setting": "ABCA1; RAW 264.7 cells pretreated with si-AMPK 24 h, then 1 μM for 24 h", "result": "inhibited by the addition of interfering RNA (si-AMPK)"}, {"measurement": "expression of ABCA1", "setting": "ABCA1; RAW 264.7 cells, 1 μM, western-blot, FIG. 11", "result": "significantly up-regulated"}]}
